Measurements taken from patent US8093282B2, “Therapeutic N-aryl or N-heteroaryl pyrazolidine and pyrazolidinone derivatives” (Allergan, Inc., priority 2008, dated 2012).

Tested on: lashes and adjacent hairs of the treated eye
Experiment: Eyelash / hair growth observed in glaucoma patients treated in one eye
Format: in vivo, human
Settings: glaucoma patient treated in only one eye
From the text: In the course of treating patients having glaucoma, treatment may only be appropriate in one eye. […] The lash appearance on the lids of the treated eyes would have appeared quite attractive if it represented a bilateral phenomenon. As a result of its asymmetric nature, the long lashes on one side could be construed as disturbing from a cosmetic standpoint. A systemic examination was preformed as a result of the asymmetric phenomenon. It soon became apparent that this altered appearance was not an isolated finding. […] Definite differences could be identified to varying degrees in the lashes and adjacent hairs of all patients who were taking the drug on a unilateral basis for longer than 6 months.
The changes in the lashes were apparent on gross inspection in several patients once attention was focused on the issue. In those with light colored hair and lashes, the differences were only seen easily with the aid of the high magnification and lighting capabilities of the slit lamp biomicroscope. In the course of glaucoma follow-up examination, attention is generally immediately focused on the eye itself. As a result of the high power magnification needed only one eye is seen at a time and the eye is seen at a high enough power that the lashes are not in focus. […]

CCNC(=O)CCC/C=C\C[C@@H]1[C@@H](/C=C/[C@@H](O)CCc2ccccc2)[C@H](O)C[C@@H]1O [bimatoprost]
lash appearance in the treated eye versus the non-treated eye: longer, thicker, and fuller
